Drawing on patent US9586951B2 (FUJIFILM Corporation, priority 2013, dated 2017), this text covers IC50 for 30 molecules.

Bounds are passed on as bounds.

For this experiment, the target named is T1, ATM (Homo sapiens, UniProt Q13315).
T1 construct: detecting phosphorylation of Chk2 in a human non-small cell lung cancer cell line NCI-H460 (ATCC company); host or cells: NCI-H460 human non-small cell lung cancer cells
T1 sequence (Q13315 whole entry): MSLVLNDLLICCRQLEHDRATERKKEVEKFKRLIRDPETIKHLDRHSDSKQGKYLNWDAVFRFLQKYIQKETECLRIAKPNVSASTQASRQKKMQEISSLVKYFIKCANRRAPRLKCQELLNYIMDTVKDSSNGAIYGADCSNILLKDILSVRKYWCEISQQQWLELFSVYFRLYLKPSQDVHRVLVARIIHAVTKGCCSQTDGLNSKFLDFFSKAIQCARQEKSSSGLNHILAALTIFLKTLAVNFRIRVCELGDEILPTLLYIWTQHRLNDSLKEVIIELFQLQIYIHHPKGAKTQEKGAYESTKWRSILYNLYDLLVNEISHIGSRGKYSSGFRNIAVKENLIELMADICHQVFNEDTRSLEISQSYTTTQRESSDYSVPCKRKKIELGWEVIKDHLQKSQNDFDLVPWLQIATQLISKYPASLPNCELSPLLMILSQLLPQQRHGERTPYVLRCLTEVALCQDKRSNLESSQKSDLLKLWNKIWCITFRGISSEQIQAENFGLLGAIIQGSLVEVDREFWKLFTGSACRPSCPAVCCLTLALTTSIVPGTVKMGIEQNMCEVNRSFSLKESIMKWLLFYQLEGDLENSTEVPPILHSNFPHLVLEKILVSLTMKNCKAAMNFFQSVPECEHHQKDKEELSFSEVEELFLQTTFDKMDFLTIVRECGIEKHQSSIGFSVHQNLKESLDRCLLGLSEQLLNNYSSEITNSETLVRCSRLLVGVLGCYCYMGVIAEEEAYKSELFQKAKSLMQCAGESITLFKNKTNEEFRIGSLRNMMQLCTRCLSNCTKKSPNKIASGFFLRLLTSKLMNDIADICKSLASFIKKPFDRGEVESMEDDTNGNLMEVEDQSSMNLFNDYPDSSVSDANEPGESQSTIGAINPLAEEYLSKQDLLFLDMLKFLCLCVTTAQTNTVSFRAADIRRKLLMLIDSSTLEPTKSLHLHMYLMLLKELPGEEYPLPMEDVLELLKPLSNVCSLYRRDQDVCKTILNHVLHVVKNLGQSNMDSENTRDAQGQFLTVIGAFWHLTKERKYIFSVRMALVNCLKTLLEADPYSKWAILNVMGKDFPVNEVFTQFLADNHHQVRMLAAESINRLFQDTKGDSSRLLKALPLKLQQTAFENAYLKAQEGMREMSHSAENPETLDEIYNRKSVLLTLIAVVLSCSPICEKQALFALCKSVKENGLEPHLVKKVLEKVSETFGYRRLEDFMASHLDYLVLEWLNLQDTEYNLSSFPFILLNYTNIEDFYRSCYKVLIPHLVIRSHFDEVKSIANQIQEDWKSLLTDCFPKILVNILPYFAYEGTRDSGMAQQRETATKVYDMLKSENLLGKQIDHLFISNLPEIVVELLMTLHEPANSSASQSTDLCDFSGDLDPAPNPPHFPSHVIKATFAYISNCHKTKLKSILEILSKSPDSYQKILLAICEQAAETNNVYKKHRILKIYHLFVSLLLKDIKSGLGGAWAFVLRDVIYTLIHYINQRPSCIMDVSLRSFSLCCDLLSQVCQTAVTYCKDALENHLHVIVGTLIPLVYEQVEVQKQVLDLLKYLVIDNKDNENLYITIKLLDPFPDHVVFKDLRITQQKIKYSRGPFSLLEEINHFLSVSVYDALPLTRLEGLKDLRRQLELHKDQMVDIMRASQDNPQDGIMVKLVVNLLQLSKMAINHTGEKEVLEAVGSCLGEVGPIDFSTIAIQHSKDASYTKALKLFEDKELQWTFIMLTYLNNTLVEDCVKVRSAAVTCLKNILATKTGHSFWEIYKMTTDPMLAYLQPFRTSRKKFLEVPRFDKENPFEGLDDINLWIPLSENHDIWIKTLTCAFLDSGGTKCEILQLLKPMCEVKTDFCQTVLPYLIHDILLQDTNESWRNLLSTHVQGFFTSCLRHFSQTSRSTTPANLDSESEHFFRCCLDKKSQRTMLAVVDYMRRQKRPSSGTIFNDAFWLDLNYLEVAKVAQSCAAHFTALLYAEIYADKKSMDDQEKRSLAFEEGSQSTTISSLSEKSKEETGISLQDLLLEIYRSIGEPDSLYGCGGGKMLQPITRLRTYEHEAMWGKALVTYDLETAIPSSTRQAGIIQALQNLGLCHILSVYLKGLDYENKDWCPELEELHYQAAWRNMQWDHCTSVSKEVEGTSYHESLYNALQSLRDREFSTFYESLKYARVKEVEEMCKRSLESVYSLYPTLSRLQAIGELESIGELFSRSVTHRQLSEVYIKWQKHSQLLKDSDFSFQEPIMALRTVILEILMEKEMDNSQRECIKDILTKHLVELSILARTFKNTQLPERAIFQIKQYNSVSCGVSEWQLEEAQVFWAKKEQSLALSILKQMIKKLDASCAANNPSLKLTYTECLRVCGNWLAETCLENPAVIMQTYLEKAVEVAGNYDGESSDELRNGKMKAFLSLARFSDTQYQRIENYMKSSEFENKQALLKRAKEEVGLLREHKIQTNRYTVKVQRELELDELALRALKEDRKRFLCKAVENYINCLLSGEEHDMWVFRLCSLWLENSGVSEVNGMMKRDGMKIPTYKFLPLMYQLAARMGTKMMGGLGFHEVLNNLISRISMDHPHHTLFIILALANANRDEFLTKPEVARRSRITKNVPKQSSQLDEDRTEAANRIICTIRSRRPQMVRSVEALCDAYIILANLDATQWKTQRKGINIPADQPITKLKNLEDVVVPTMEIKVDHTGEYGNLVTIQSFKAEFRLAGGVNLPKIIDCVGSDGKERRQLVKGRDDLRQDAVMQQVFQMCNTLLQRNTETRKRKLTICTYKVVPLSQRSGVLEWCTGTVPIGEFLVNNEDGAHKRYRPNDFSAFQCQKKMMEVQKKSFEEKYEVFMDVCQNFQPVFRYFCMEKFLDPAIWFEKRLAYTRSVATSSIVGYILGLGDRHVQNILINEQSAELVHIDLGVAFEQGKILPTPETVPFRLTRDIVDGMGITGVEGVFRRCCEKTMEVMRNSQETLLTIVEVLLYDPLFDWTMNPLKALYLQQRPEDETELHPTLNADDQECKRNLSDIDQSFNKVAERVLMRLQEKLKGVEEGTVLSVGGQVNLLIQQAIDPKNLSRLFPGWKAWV
The experiment in a line: ATM inhibition test (phosphorylation of Chk2 generated by ionizing radiation, AlphaScreen SureFire). The experiment is classed as cell-based. As to conditions: phosphorylated Chk2 in NCI-H460 cells, ionizing radiation 8Gy, 1 hour after test compound treatment; read-out: ATM inhibitory activity. As to the method: ATM inhibitory effects of a test compound were measured by detecting phosphorylation of Chk2 in a human non-small cell lung cancer cell line NCI-H460 (ATCC company). The level of phosphorylated Chk2 generated by an ionizing radiation was measured using AlphaScreen SureFire (TGR Biosciences).
The cells were seeded by 40000 cells per well in 96-well CellBIND® plates (Corning International Inc.), and incubated at 37° C. overnight in 5% CO2. […] 1 hour after a test compound treatment, half of the plates were irradiated with ionizing radiation 8Gy (Faxitron Bioptics, LLC, RX-650 type). The plates irradiated with ionizing radiation and the plates not being irradiated with ionizing radiation were incubated at 37° C. for 1 hour in 5% CO2. […] Subsequent operations were performed according to the instruction book of AlphaScreen SureFire. […] The inhibition ratio was calculated by the following equation. Inhibition ratio (%)=((signal of drug untreated wells in the plates irradiated with ionizing radiation−signal of drug treated wells in the plates irradiated with ionizing radiation)/(signal of drug untreated wells in the plates irradiated with ionizing radiation−signal of drug untreated wells in the plates not being irradiated with ionizing radiation))×100
In general terms: Bead proximity is the source of the signal in Alpha formats.
Turning to `CCNc1cccc(CNc2ccc3c(c2)Cc2cccc(-c4cc(N5CCOCC5)cc(=O)[nH]4)c2O3)n1` [Example 2-6-2, 6-(7-(((6-(Ethylamino)pyridin-2-yl)methyl)amino)-9H-xanthen-4-yl)-4-morpholinopyridin-2(1H)-one], the IC50 was 100 to 500 nM.

Take `CC(CN1CC2(COC2)C1)Nc1ccc2c(c1)Sc1cccc(-c3cc(N4CCOCC4)cc(=O)[nH]3)c1S2` (stereo not drawn) [Example 1-43-2, 6-(7-((1-(2-Oxa-6-azaspiro [3.3]heptan-6-yl)propan-2-yl)amino)thianthren-1-yl)-4-morpholino pyridin-2(1H)-one]: the IC50 is 100 to 500 nM.

As to `CC1CC(Nc2ccc3c(c2)Cc2cccc(-c4cc(N5CCOCC5)cc(=O)[nH]4)c2O3)CCN1CCc1ccccc1` (stereo not drawn) [Example 2-19-1, 6-(7-((2-Methyl-1-phenethylpiperidin-4-yl)amino)-9H-xanthen-4-yl)-4-morpholinopyridin-2(1H)-one], the IC50 lay in the range of 100 to 500 nM.

Turning to `O=c1cc(N2CCOCC2)cc(-c2cccc3c2Oc2ccc([N+](=O)[O-])cc2S3)[nH]1` [Example 4-1, 4-Morpholino-6-(8-nitrophenoxathiin-4-yl)pyridin-2(1H)-one], the IC50 was in the range of 500 to 2000 nM.

In the case of `CC(Nc1ccc2c(c1)Cc1cccc(-c3cc(N4CCOCC4)cc(=O)[nH]3)c1O2)c1cccnc1` (single isomer, unassigned) [Example 2-36-2, 4-Morpholino-6-(7-((1-(pyridin-3-yl)ethyl)amino)-9H-xanthen-4-yl)pyridin-2(1H)-one], the IC50 lay in the range of 100 to 500 nM.

With `Cc1ccc(CNc2ccc3c(c2)Cc2cccc(-c4cc(N5CCOCC5)cc(=O)[nH]4)c2O3)s1` [Example 2-14-40, 6-(7-(((5-Methylthiophen-2-yl)methyl)amino)-9H-xanthen-4-yl)-4-morpholino pyridin-2(1H)-one], the IC50 was in the range of 500 to 2000 nM.

Turning to `CCC(C(=O)Nc1ccc2c(c1)Sc1cccc(-c3cc(N4CCOCC4)cc(=O)[nH]3)c1S2)N1CCCC1` (stereo not drawn) [Example 1-6-1, N-(6-(4-morpholino-6-oxo-1,6-dihydropyridin-2-yl)thianthren-2-yl)-2-(pyrrolidin-1-yl)butanamide], the IC50 fell in the range of 100 to 500 nM.

As to `Cc1nccnc1CNc1ccc2c(c1)Cc1cccc(-c3cc(N4CCOCC4)cc(=O)[nH]3)c1O2` [Example 2-14-75, 6-(7-(((3-Methylpyrazin-2-yl)methyl)amino)-9H-xanthen-4-yl)-4-morpholino pyridin-2(1H)-one], the IC50 was in the range of 100 to 500 nM.

Turning to `Cc1ccnc(C(CN2CCOCC2)Nc2ccc3c(c2)Sc2cccc(-c4cc(N5CCOCC5)cc(=O)[nH]4)c2S3)n1` (stereo not drawn) [Example 1-13-18, 6-(7-((1-(4-Methylpyrimidin-2-yl)-2-morpholinoethyl)amino)thianthren-1-yl)-4-morpholinopyridin-2(1H)-one], the IC50 was in the range of 500 to 2000 nM.

In the case of `CC(C)Oc1ccc(CCN2CCC(Nc3ccc4c(c3)Cc3cccc(-c5cc(N6CCOCC6)cc(=O)[nH]5)c3O4)CC2)cc1` [Example 2-30-18, 6-(7-((1-(4-Isopropoxyphenethyl)piperidin-4-yl)amino)-9H-xanthen-4-yl)-4-morpholino pyridin-2(1H)-one], the IC50 fell in the range of 100 to 500 nM.

For `CC(Nc1ccc2c(c1)Cc1cccc(-c3cc(N4CCOCC4)cc(=O)[nH]3)c1O2)C1CC1` (stereo not drawn) [Example 2-14-70, 6-(7-((1-Cyclopropylethyl)amino)-9H-xanthen-4-yl)-4-morpholino pyridin-2(1H)-one], the IC50 was in the range of 500 to 2000 nM.

As for `Cc1cc(C(C)Nc2ccc3c(c2)Cc2cccc(-c4cc(N5CCOCC5)cc(=O)[nH]4)c2O3)ncn1` (stereo not drawn) [Example 2-14-52, 6-(7-((1-(6-Methylpyrimidin-4-yl)ethyl)amino)-9H-xanthen-4-yl)-4-morpholino pyridin-2 (1H)-one], the IC50 was in the range of 100 to 500 nM.

Consider `Cc1nccnc1CNc1ccc2c(c1)Sc1cccc(-c3cc(N4CCOCC4)cc(=O)[nH]3)c1S2` [Example 1-12-61, 6-(7-(((3-Methylpyrazin-2-yl)methyl)amino)thianthren-1-yl)-4-morpholino pyridin-2 (1H)-one], for which the IC50 was in the range of 100 to 500 nM.

As to `Cc1ccccc1CCN1CCC(Nc2ccc3c(c2)Cc2cccc(-c4cc(N5CCOCC5)cc(=O)[nH]4)c2O3)CC1` [Example 2-30-4, 6-(7-((1-(2-Methylphenethyl)piperidin-4-yl)amino)-9H-xanthen-4-yl)-4-morpholino pyridin-2 (1H)-one], the IC50 was 100 to 500 nM.

Turning to `CC(Nc1ccc2c(c1)Cc1cccc(-c3cc(N4CCOCC4)cc(=O)[nH]3)c1O2)c1cncc(Cl)c1` (stereo not drawn) [Example 2-14-27, 6-(7-((1-(5-Chloropyridin-3-yl)ethyl)amino)-9H-xanthen-4-yl)-4-morpholino pyridin-2(1H)-one], the IC50 lay in the range of 100 to 500 nM.

For the molecule `Cc1ccc(C(CO)Nc2ccc3c(c2)Sc2cccc(-c4cc(N5CCOCC5)cc(=O)[nH]4)c2S3)nc1` (stereo not drawn) [Example 1-12-99, 6-(7-((2-Hydroxy-1-(5-methylpyridin-2-yl)ethyl)amino)thianthren-1-yl)-4-morpholino pyridin-2(1H)-one], the IC50 lay in the range of 100 to 500 nM.

Turning to `COc1cnccc1CNc1ccc2c(c1)Sc1cccc(-c3cc(N4CCOCC4)cc(=O)[nH]3)c1O2` [Example 4-4-23, 6-(8-(((3-Methoxypyridin-4-yl)methyl)amino)phenoxathiin-4-yl)-4-morpholino pyridin-2(1H)-one], the IC50 lay in the range of 100 to 500 nM.

On to `Cc1ccc(C2(Nc3ccc4c(c3)Sc3cccc(-c5cc(N6CCOCC6)cc(=O)[nH]5)c3S4)CCC2)nc1` [Example 1-50-3, 6-(7-((1-(5-Methylpyridin-2-yl)cyclobutyl)amino)thianthren-1-yl)-4-morpholino pyridin-2(1H)-one], for which the IC50 is 100 to 500 nM.

For the molecule `COc1cncc(CNc2ccc3c(c2)Cc2cc(C)cc(-c4cc(N5CCOCC5)cc(=O)[nH]4)c2O3)c1` [Example 2-49-2, 6-(7-(((5-Methoxypyridin-3-yl)methyl)amino)-2-methyl-9H-xanthen-4-yl)-4-morpholinopyridin-2(1H)-one], the IC50 fell in the range of 100 to 500 nM.

Take `O=c1cc(N2CCOCC2)cc(-c2cccc3c2Sc2ccc(NCCCN4CCOCC4)cc2S3)[nH]1` [Example 1-9-3, 4-Morpholino-6-(7-((3-morpholinopropyl)amino)thianthren-1-yl)pyridin-2(1H)-one]: the IC50 is less than 100 nM.

On to `O=c1cc(N2CCOCC2)cc(-c2nccc3c2Oc2ccc(NCc4cc(C5CC5)ccn4)cc2C3)[nH]1` [Example 2-41-6, 6-(7-(((4-Cyclopropylpyridin-2-yl)methyl)amino)-5H-chromeno[2,3-c]pyridin-1-yl)-4-morpliolino pyridin-2 (1H)-one], for which the IC50 was 100 to 500 nM.

As to `CC(CN1CCC(F)(F)C1)Nc1ccc2c(c1)Sc1cccc(-c3cc(N4CCOCC4)cc(=O)[nH]3)c1S2` (stereo not drawn) [Example 1-43-7, 6-(7-((1-(3,3-Difluoropyrrolidin-1-yl)propan-2-yl)amino)thianthren-1-yl)-4-morpholino pyridin-2(1H)-one], the IC50 fell in the range of 100 to 500 nM.

Consider `CCCCN1CCC(Nc2ccc3c(c2)Cc2cccc(-c4cc(N5CCOCC5)cc(=O)[nH]4)c2O3)CC1C` (stereo not drawn) [Example 2-19-2, 6-(7-((1-Butyl-2-methylpiperidin-4-yl)amino)-9H-xanthen-4-yl)-4-morpholinopyridin-2(1H)-one], for which the IC50 fell in the range of 500 to 2000 nM.

For the molecule `O=c1cc(N2CCOCC2)cc(-c2cccc3c2Oc2ccc(NCc4ccnc(Cl)c4F)cc2C3)[nH]1` [Example 2-2-19, 6-(7-(((2-Chloro-3-fluoropyridin-4-yl)methyl)amino)-9H-xanthen-4-yl)-4-morpholino pyridin-2(1H)-one], the IC50 lay in the range of 100 to 500 nM.

As to `CN(C)C1CCN(c2cccc(CNc3ccc4c(c3)Sc3cccc(-c5cc(N6CCOCC6)cc(=O)[nH]5)c3S4)n2)C1` (stereo not drawn) [Example 1-12-35, 6-(7-(((6-(3-(Dimethylamino)pyrrolidin-1-yl)pyridin-2-yl)methyl)amino)thianthren-1-yl)-4-morpholino pyridin-2 (1H)-one], the IC50 fell in the range of 100 to 500 nM.

`CN(C)c1nccc(CN2CCC(Nc3ccc4c(c3)Cc3cccc(-c5cc(N6CCOCC6)cc(=O)[nH]5)c3O4)CC2)n1` [Example 2-28-16, 6-(7-((1-((2-(Dimethylamino)pyrimidin-4-yl)methyl)piperidin-4-yl)amino)-9H-xanthen-4-yl)-4-morpholino pyridin-2(1H)-one]: the IC50 was in the range of 100 to 500 nM.

Turning to `COCc1ccc(CNc2ccc3c(c2)Cc2cccc(-c4cc(N5CCOCC5)cc(=O)[nH]4)c2O3)cn1` [Example 2-2-43, 6-(7-(((6-(Methoxymethyl)pyridin-3-yl)methyl)amino)-9H-xanthen-4-yl)-4-morpholino pyridin-2(1H)-one], the IC50 lay within 100 to 500 nM.

Regarding `Cc1cccc(C(CO)Nc2ccc3c(c2)Cc2cccc(-c4cc(N5CCOCC5)cc(=O)[nH]4)c2O3)n1` (racemic) [Example 2-14-38, 6-(7-((2-Hydroxy-1-(6-methylpyridin-2-yl)ethyl)amino)-9H-xanthen-4-yl)-4-morpholino pyridin-2 (1H)-one], the IC50 was in the range of 100 to 500 nM.

`Cc1ccc(C(C)Nc2ccc3c(c2)Sc2cccc(-c4cc(N5CCOCC5)cc(=O)[nH]4)c2S3)nc1` (single isomer, unassigned) [Example 1-12-143-2, 6-(7-((1-(5-methylpyridin-2-yl)ethyl)amino)thianthren-1-yl)-4-morpholinopyridin-2(1H)-one]: the IC50 was 100 to 500 nM.

As to `CC(Nc1ccc2c(c1)Cc1cccc(-c3cc(N4CCOCC4)cc(=O)[nH]3)c1O2)c1ccnc(F)c1` (stereo not drawn) [Example 2-14-25], the IC50 fell in the range of 100 to 500 nM.
